ChEMBL document CHEMBL2203017, “STAT6 phosphorylation inhibitors block eotaxin-3 secretion in bronchial epithelial cells” (Bioorg Med Chem, 2012)
Active and inactive are the calls of the source. No cut-off for these calls is given here.

Assays:
[1] = biological target: T1, Signal transducer and activator of transcription 6 (Homo sapiens) (UniProt P42226); test: Inhibition of IL-4-induced human STAT6 tyrosine phosphorylation expressed in 293-EBNA cells at 10 uM incubated for 1 hr prior to IL-4-induction measured after 6 hrs by Western blot analysis; format: cell-based
T1 sequence (whole entry): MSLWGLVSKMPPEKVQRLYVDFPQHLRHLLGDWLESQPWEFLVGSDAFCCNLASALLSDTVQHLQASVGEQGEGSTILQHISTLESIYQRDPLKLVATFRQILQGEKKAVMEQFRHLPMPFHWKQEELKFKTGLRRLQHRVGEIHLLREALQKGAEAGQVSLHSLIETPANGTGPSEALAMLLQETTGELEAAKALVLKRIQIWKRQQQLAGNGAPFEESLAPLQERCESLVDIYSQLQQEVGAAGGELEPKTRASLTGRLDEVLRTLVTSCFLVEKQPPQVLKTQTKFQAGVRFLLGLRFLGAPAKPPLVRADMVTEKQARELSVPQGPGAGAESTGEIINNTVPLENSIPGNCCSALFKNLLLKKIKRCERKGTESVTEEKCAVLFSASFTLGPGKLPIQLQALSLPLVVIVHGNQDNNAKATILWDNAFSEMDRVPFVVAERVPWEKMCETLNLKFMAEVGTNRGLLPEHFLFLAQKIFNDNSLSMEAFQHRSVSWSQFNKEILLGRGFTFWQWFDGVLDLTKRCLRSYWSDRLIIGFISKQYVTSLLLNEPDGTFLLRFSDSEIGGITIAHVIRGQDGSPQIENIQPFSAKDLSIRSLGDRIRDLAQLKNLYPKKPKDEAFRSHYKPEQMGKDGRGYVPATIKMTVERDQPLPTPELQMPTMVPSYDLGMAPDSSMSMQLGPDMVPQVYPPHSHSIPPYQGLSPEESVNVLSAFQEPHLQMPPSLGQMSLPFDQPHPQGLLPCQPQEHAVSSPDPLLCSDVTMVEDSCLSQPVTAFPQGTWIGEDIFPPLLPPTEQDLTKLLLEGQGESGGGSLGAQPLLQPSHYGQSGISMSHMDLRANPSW

[2] = biological target: T1, Signal transducer and activator of transcription 6 (Homo sapiens); test: Inhibition of interaction of human recombinant STAT6 with tyrosine phosphorylated IL-4Ralpha peptide at 20 uM after 1 hr by ELISA
[3] = biological target: T2, Signal transducer and activator of transcription 6 (Homo sapiens, UniProt P42226); test: Binding affinity at human recombinant STAT6 by SPR analysis
T2 sequence (P42226 whole entry): T1 sequence (whole entry)

[4] = biological target: T1, Signal transducer and activator of transcription 6 (Homo sapiens); test: Inhibition of human N-terminal HA/myc tagged STAT6 expressed in 293-EBNA cells assessed as inhibition of IL-4-induced STAT6 inactive dimer-tyrosine phosphorylation after 1 hr by immunoblot analysis; format: cell-based
[5] = biological target: T1, Signal transducer and activator of transcription 6 (Homo sapiens); test: Inhibition of human N-terminal HA/myc tagged STAT6 expressed in 293-EBNA cells assessed as effect on STAT6 dimer configuration after 1 hr by immunoblot analysis; format: cell-based
[6] = biological target: Tyrosine-protein kinase JAK2 (Homo sapiens) (UniProt O60674); test: Inhibition of JAK2 up to 10 uM after 30 mins by colorimetric ELISA
[7] = biological target: T1, Signal transducer and activator of transcription 6 (Homo sapiens); test: Inhibition of human STAT6 expressed in 293-EBNA cells assessed as inhibition of IL4-induced STAT6 transcriptional activation at 10 uM after 1 hr by Photinus pylaris luciferase reporter gene assay; format: cell-based
[8] = biological target: T2, Signal transducer and activator of transcription 6; test: Inhibition of human STAT6 expressed in 293-EBNA cells assessed as inhibition of IL4-induced STAT6 transcriptional activation after 1 hr by Photinus pylaris luciferase reporter gene assay; format: cell-based
[9] = Cytotoxicity against human 293-EBNA cells assessed as effect on luciferase activity at 10 uM after 1 hr by Photinus reniformis luciferase reporter gene assay; format: cell-based
[10] = Cytotoxicity against human 293-EBNA cells assessed as effect on luciferase activity at 10 uM after 1 hr by Renilla reniformis luciferase reporter gene assay; format: cell-based
[11] = biological target: T1, Signal transducer and activator of transcription 6 (Homo sapiens); test: Inhibition of human STAT6 expressed in 293-EBNA cells assessed as inhibition of IL4-induced STAT6 transcriptional activation at 10 uM after 1 hr by Renilla reniformis luciferase reporter gene assay; format: cell-based
[12] = biological target: Signal transducer and activator of transcription 6 (Homo sapiens) (UniProt P42226); test: Inhibition of human STAT6 expressed in BEAS2B cells assessed as […]-induced eotaxin-3 secretion at 10 uM after 24 hrs by ELISA
[13] = biological target: Signal transducer and activator of transcription 6 (Homo sapiens) (UniProt P42226); test: Inhibition of human STAT6 expressed in BEAS2B cells assessed as IL4/TNFalpha-induced eotaxin-3 secretion at 10 uM after 24 hrs by ELISA
[14] = biological target: Signal transducer and activator of transcription 6 (Homo sapiens) (UniProt P42226); test: Inhibition of human STAT6 expressed in BEAS2B cells assessed as IL4-induced eotaxin-3 secretion after 24 hrs by ELISA
[15] = biological target: Signal transducer and activator of transcription 6 (Homo sapiens) (UniProt P42226); test: Inhibition of human STAT6 expressed in BEAS2B cells assessed as inhibition of IL4-induced STAT6 transcriptional activation
[16] = biological target: Signal transducer and activator of transcription 6 (Homo sapiens) (UniProt P42226); test: Inhibition of human STAT6 expressed in BEAS2B cells assessed as IL4-induced eotaxin-3 secretion at 10 uM after 24 hrs by ELISA
[17] = biological target: Signal transducer and activator of transcription 6 (Homo sapiens) (UniProt P42226); test: Inhibition of human STAT6 expressed in BEAS2B cells assessed as […]/TNFalpha-induced eotaxin-3 secretion in presence of TNFalpha at 10 uM after 24 hrs by ELISA

Chain of Tyrosine-protein kinase JAK2 (Homo sapiens) (O60674 whole entry): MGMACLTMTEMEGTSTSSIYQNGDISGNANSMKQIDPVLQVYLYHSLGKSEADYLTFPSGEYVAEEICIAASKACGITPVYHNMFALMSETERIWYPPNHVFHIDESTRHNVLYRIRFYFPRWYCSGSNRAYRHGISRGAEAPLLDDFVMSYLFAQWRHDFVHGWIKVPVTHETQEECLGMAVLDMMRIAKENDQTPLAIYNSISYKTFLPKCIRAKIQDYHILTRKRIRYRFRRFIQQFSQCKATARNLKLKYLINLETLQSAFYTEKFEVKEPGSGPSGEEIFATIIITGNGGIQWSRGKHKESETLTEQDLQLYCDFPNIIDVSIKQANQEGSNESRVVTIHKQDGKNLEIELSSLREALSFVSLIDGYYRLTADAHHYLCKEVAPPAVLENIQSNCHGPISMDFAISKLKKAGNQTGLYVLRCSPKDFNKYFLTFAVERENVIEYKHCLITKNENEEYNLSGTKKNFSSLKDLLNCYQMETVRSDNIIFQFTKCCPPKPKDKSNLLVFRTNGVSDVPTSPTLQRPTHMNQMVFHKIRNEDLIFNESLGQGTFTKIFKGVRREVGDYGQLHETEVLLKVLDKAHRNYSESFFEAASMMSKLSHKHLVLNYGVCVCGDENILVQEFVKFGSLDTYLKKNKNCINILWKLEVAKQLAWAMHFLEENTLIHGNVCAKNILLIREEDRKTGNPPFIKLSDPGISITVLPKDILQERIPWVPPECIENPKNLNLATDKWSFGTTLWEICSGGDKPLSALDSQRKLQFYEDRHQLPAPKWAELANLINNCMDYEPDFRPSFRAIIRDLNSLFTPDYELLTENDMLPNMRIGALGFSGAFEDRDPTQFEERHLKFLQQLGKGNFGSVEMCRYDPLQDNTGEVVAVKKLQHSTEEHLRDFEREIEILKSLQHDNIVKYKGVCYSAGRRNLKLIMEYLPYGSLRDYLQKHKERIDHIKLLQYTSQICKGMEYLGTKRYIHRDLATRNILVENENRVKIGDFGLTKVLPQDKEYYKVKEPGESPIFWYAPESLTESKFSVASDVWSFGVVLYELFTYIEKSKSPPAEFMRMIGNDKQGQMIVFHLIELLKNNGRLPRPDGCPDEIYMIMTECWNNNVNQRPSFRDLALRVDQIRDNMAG

SMILES	inhibition [1]	inhibition [2]	Kd [3] [µM]	inhibition [4]	inhibition [5]	inhibition [6]	inhibition [7]	IC50 [8] [µM]	Activity [9]	Activity [10]	inhibition [11]	inhibition [12]	inhibition [13]	IC50 [14] [µM]	inhibition [15]	inhibition [16]	inhibition [17]
CN(CCc1ccccc1)C(=O)c1csc2c1CCC/C2=N/O	inactive	inactive	74	inactive	inactive												
CC(C)[C@@H](C)NC(=O)c1cc(-c2cc3ccccc3s2)cc(C(=O)NCCc2ccccn2)n1	Active	inactive	0.701	Active	inactive	inactive	Active	3.2	Non-toxic	Non-toxic	Active						
CC(C)[C@@H](C)NC(=O)c1cc(-c2cc3ccccc3n2C)cc(C(=O)NCCc2ccccn2)n1	Active	inactive	0.656	Active	inactive	inactive	Active	2.7	Non-toxic	Non-toxic	Active	Active	Active	2.74	Active	Active	Active
